Reference: patent US20050154061A1, “Acetic acid derivatives” (Bayer Aktiengesellschaft, priority 2001, published 2005)

Molecular target: T1, GAL4-PPARδ chimera (Homo sapiens, UniProt Q03181)
T1 construct: expressed in transfected cells
Assay: Cellular transactivation assay (luciferase reporter)
Type: cell-based
Details: CHO cells stably expressing GAL4-PPARδ chimera and luciferase reporter; 24 hours stimulation
From the text: Cellular Transactivation Assay:
A cellular assay is used to identify activators of the peroxisome proliferator-activated receptor delta (PPAR-delta).
Since mammalian cells contain different endogenous nuclear receptors which may complicate an unambiguous interpretation of the results, an established chimera system is used in which the ligand binding domain of the human PPARδ receptor is fused to the DNA binding domain of the yeast transcription factor GAL4. The resulting GAL4-PPARδ chimera is co-transfected and stably expressed in CHO cells having a reporter construct.
The reporter construct, which contains five copies of the GAL4 binding site upstream of a thymidine kinase promoter, expresses firefly luciferase (Photinus pyralis) following activation and binding of GAL4-PPARδ.
Transactivation Assay (Luciferase Reporter):
CHO (chinese hamster ovary) cells are sown in CHO-A-SFM medium (GIBCO), supplemented by 2.5% foetal calf serum, 1% penicillin/streptomycin (GIBCO), at a cell density of 2×10^3 cells per well in a 384 well plate (Greiner). The cells are cultivated at 37° C. for 48 h and then stimulated. To this end, the substances to be tested are taken up in the abovementioned medium and added to the cells. After a stimulation period of 24 hours, the luciferase activity is measured using a video camera. The relative light units measured give, as a function of the substance concentration, a sigmoidal stimulation curve.

T1 sequence (Q03181 with tags, fused parts or gaps limits assumed): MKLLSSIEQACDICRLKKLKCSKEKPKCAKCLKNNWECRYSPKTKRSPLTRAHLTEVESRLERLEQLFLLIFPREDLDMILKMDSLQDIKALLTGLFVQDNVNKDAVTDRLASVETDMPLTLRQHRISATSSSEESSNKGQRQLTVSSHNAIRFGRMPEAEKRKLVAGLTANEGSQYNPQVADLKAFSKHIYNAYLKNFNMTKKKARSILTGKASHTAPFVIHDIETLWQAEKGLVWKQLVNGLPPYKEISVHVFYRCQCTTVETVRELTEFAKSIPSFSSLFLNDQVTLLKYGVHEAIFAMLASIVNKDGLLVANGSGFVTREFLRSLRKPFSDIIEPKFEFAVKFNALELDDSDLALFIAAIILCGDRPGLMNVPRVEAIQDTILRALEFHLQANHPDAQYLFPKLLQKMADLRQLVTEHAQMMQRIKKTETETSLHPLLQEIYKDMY

SMILES	EC50 [nM]
Cc1cc(CN(CC(=O)Nc2ccc(Cl)cc2Cl)C2CCCCC2)ccc1OC(C)(C)C(=O)O [Example 1, 2-[4-[[[2-[(2,4-Dichlorophenyl)amino]-2-oxoethyl]cyclohexylamino]methyl]-2-methylphenoxy]-2-methylpropanoic Acid]	1 to 100
Cc1cc(CN(CC(=O)Nc2ccc(Cl)cc2Cl)C2CCCCC2)ccc1OCC(=O)O [Example 2, 2-[4-[[[2-[(2,4-Dichlorophenyl)amino]-2-oxoethyl]cyclohexylamino]methyl]-2-methylphenoxy]acetic Acid]	1 to 100
Cc1cc(CN(CC(=O)Nc2ccc(Cl)cc2Cl)C2C(C)CCC2C)ccc1OC(C)(C)C(=O)O (stereo not shown) [Example 3, 2-[4-[[[2-[(2,4-Dichlorophenyl)amino]-2-oxoethyl]-(2,5-dimethylcyclopentyl)amino]methyl]-2-methylphenoxy]-2-methylpropanoic Acid]	1 to 100
Cc1cc(CN(CCNc2ccc(Cl)cc2Cl)C2CCCCC2)ccc1OC(C)(C)C(=O)O [Example 4, 2-{4-[(Cyclohexyl{2-[(2,4-dichlorophenyl)amino]ethyl}amino)methyl]-2-methylphenoxy}-2-methylpropanoic Acid]	1 to 100
Cc1ccc(NC(=O)CN(Cc2ccc(OC(C)C(=O)O)c(C)c2)C2CCCCC2)c(C)c1 (stereo not shown) [Example 6, 2-[4-[[[2-[(2,4-Dimethylphenyl)amino]-2-oxoethyl]cyclohexylamino]methyl]-2-methylphenoxy]propanoic Acid]	1 to 100
Cc1cc(CN(CC(=O)Nc2ccc(Cl)cc2Cl)C2CCCC2)ccc1OC(C)C(=O)O (stereo not shown) [Example 8]	1 to 100
CC(C)(Oc1ccc(CN(CC(=O)Nc2ccc(Cl)cc2Cl)C2CCCC2)cc1)C(=O)O [Example 9]	1 to 100
